Measurements taken from US5837728A, “9-cis retinoic acid esters and amides and uses thereof” (priority 1995, dated 1998).
Entries after “also recorded” stand apart in the source; their conditions may differ.

Legend:
[1] = test system: ornithine decarboxylase (ODC); assay: ODC/Retinoid Bioassay: inhibition of TPA induced ornithine decarboxylase activity; assay type: in vivo, CD-1 mice; details: topical, TPA induced
Procedure: The ODC/Retinoid Bioassay is based on the method of Verma, A. K. and Boutwell, R. K., Cancer Res. (1977) 37:2196-2201. The ODC assay measures a compounds effect on the prevention of the induction of ODC, namely the effect of the retinoid compound on the inhibition of the tumor promoter 12-O-tetradecanoylphorbol-13-acetate (TPA) induced ODC activity. The assay is carried out using CD-1 mice (aged 7 to 9 weeks). The dorsal hair of the mice is shaved 3-4 days before testing. Four mice are used for each point. The test retinoids, at one of two dose levels (1.7 and 17 nmoles) dissolved in 0.2 ml of acetone is applied topically to the back of each shaved mouse. A single dose of TPA ([…]) is applied to the back of each treated mouse 30 minutes later. Control groups are treated with either acetone alone, TPA, or tretinoin. The mice are sacrificed by cervical dislocation 5 hours after TPA treatment.
The dorsal skin encompassing the shaved and TPA exposed area is excised and placed in a 100 ml beaker containing distilled water maintained at 51° C.-57° C. The skin is soaked for 50-70 seconds at this temperature with intermittent stirring. The skin is placed epidermis side up in a chilled (0°-5° C.) stainless steel plate and the epidermal layer is scraped off with a razor blade. The epidermal layers from the 4 mice are pooled and placed in a homogenization tube with 2 ml of ODA buffer ([…] with […] pyridoxal phosphate, […] ethylenediaminetetraacetic acid (EDTA), 1 mM dithiothreitol, pH 7.5). The pooled epidermal layers are homogenized for 15 seconds at 0° C. using a Polytron homogenizer at a setting of 7.5. The homogenate is centrifuged at 30,000×g and the supernatant fraction is pipetted into a storage tube and frozen for about 72 hours.
The homogenate is assayed for ODC activity as described by Verma and Boutwell to measure the release of ^14 CO2 from labeled DL(1-14C) ornithine. Incubations are carried out in disposable centrifuge tubes with center well holders containing filter paper impregnated with sodium hydroxide to absorb ^14 CO2. The incubation mixture consisted of 90 μl of L-ornithine, 350 μl of ODC buffer, 100 μl of 14C-ornithine (1.32 nm, Sp. Act:4.4 pCi/pM) and 10 μl of test sample. After incubation at 37° C. for 45 minutes, 0.5 ml of 2M chilled citric acid (4° C.) is added and incubation is continue for an additional 30 minutes to insure complete absorption of ^14 CO2. The filter paper is removed from the center well holders and set in 1 ml of water in capped scintillation vials for at least 1 hour before adding RBI 3820 scintillation cocktail. Radioactivity is measured in a Tri Carb Scintillation Counter. Results are expressed as pmol of ^14 CO2 released in 30 minutes per milligram of protein based on the specific activity of DL-14C-ornithine. The results are expressed in Table 2 below as the % reduction in ODC activity as compared to the control, for the compounds of each of the preceding Examples: […]

[2] = test system: sun-damaged, wrinkled, aged skin of the face and forearms; assay: Topical assay for antiaging and antiactinic effects (dermatoheliosis); assay type: in vivo, human (patients)
Excerpt: Four subjects aged 49 to 73, three females and one male having significant,easily observe, sun-damaged, wrinkled, aged skin of the face and forearms are subjects of a study to determine the effect of topical application of 2-(9-cis-retinoyloxy)-4-methoxyacetophenone in the treatment of dermatoheliosis. The three females had moderately severe sun-damaged skin and wrinkles of the forearms, hands and face. The one person has extremely severe sun damage in these areas as well as multiple actinic keratoses. The four subjects are provided with and applied to their entire faces (omitting the eyelids) and dorsal surface of the right forearm, once daily for 12 to 16 weeks, 0.1% concentration of 2-(9-cis-retinoyloxy)-4-methoxyacetophenone in a hydrophilic cream vehicle. The left forearm of each patient is treated daily with a non-medicated moisturizer of the patients choice.
All subjects are evaluated every 4 weeks through the study for redness, peeling, skin surface texture and wrinkling. Biopsies (using a 4 mm punch) are taken from the dorsal surface of the right upper forearm at the beginning of the study and again from the same area at the end of the study. The biopsies are stained with H & E, Alcian Blue and collagen/elastic stains and compared by a qualified dematopathologist.

[3] = test system: Human neonatal foreskin keratinocytes; assay: Growth of human neonatal foreskin keratinocytes (cell number); assay type: cell-based; details: three days
Excerpt: Human neonatal foreskin keratinocytes and human neonatal foreskin fibroblasts were isolated and grown in monlayer culture. Culture medium for keratinocytes was Keratincyte Growth Medium (KGM) from Clonetics, Inc., San Diego. Calif. The culture medium for fibroblasts was Dulbecco's Modified Eagle's Medium (DMEM) supplemented with non-essential amino acids and 10% fetal bovine serum. The culture medium was obtained from GIBCO, Grand Island, N.Y. and the FBS was from Hyclone Labs, Inc., Logan, Utah.
Cells at passage 2-4 were plated in wells of a 24 well dish at approximately 5×10^4 cells per well in their respective culture medium. Incubation was at 37° C. with 5% CO2. After the cells attached and spread overnight, they were washed two times in serum-free keratincyte basal medium (KBM) and incubated in 1 ml of KBM or in 1 ml of KGM. Compound IV was added in varying concentrations to the wells. […] The cells were incubated for an additional two days for fibroblasts and three days for keratinocytes, and were then harvested and counted.

[4] = test system: partial-thickness skin wounds; details: cited from earlier work
[5] = test system: skin wound of rats; details: 1% for 3 days before and 0.1% after the wound; cited from earlier work
[6] = test system: ultraviolet damaged skin of hairless mice; details: topical tretinoin, several weeks; cited from earlier work
[7] = test system: epidermal growth factor cell surface receptors; details: in vitro; cited from earlier work
[8] = 17.0 nM (as printed in Table 2)
[9] = 0.1% cream, once daily for 12 to 16 weeks

SMILES	ODC activity reduction ([1]; 1.7 nM (as printed in Table 2))	ODC activity reduction [1, 8]	Facial improvement of dermatoheliosis [2, 9]	Irritation during antiaging study [2, 9]	Forearm improvement in surface texture, dryness and fine wrinkling ([2]; 0.1% cream, once daily, within two months)	Biopsy differences before and after treatment ([2]; dorsal right forearm, 4 mm punch)	Number of keratinocytes, KGM ([3]; 0.25 μg/ml)	Number of keratinocytes, KMB ([3]; 0.25 μg/ml)	Number of keratinocytes, KGM ([3]; 0.5 μg/ml)	Number of keratinocytes, KMB ([3]; 0.5 μg/ml)	Number of keratinocytes, KMB ([3]; 1.0 μg/ml)	Effect on healing when applied after wounding ([4]; applied after wounding)	Rate of healing ([4]; pre-treated with 0.05% tretinoin cream for 10 days prior to wounding) [%]	Acceleration of healing compared to control group [5] [%]	Repair of ultraviolet damaged skin [6]	Effect on epidermal growth factor activity and receptor binding [7]
COc1ccc(C(=O)COC(=O)/C=C(C)/C=C/C=C(C)\C=C\C2=C(C)CCCC2(C)C)cc1 [Compound 2, 2-(9-cis-retinoyloxy)-4'-methoxyacetophenone]	++	+++	all show an improvement in their dermatoheliosis; also recorded: Two of the four patients show very significant improvement in facial smoothness, dryness and fine wrinkling; also recorded: Moderate improvement of these parameters are observed in the other two patients	No significant irritation is experienced by any patient; also recorded: Very slight pinkness and a feeling of slight tightness in facial skin develops in two patients	three show improvement in surface texture (smoothness), surface dryness and fine wrinkling within two months	no significant differences in before treatment and after treatment biopsies										
CC1=C(/C=C/C(C)=C/C=C/C(C)=C/C(=O)O)C(C)(C)CCC1 [all-trans-retinoic acid, reference compound]		+++					24.7 ± 1.7 × 10^4 cells	13.7 ± 1.6 × 10^4 cells	17.7 ± 0.8 × 10^4 cells	15.2 ± 0.1 × 10^4 cells	12.3 ± 1.0 × 10^4 cells	deleterious effect on healing	6	18	subepidermal repair zone in the treated mice was significantly wider than that in the untreated control group; also recorded: augmented the repair of ultraviolet damaged tissue in the hairless mouse with new blood vessel formation	increases the mitogenic activity of epidermal growth factor and its binding to its cell surface receptors in vitro
